Reference: ChEMBL document CHEMBL4414621, “Thiohydantoin and Hydantoin Derivatives from the Roots of Armoracia rusticana and Their Neurotrophic and Anti-neuroinflammatory Activities” (J Nat Prod, 2019)
pIC50: −log10 of the molar value.

Assays:
C6 = assay: Neuroprotective activity in rat C6 cells assessed as NGF secretion at 20 uM incubated for 24 hrs by ELISA relative to control; assay type: functional
[1] = Cytotoxicity against rat C6 cells assessed as cell viability at 20 uM incubated for 24 hrs by MTT assay relative to control; assay type: cell-based; conditions: read-out: Activity
BV-2 = assay: Antineuroinflammatory activity against mouse BV2 cells assessed as inhibition in LPS-induced NO production preincubated for 30 mins followed b LPS addition and measured after 24 hr by griess reagent based assay; assay type: functional, cell-based

Row | Structure (SMILES) | Activity (C6) [%] | viability at 24 h, 20 µM [1] [%] | pIC50 (BV-2)
1 | O=C1C2CCCN2C(=S)N1Cc1ccccc1 (stereo not drawn) | 105.88 | 109 | –
2 | NC(=O)NCCc1ccccc1 | 105.82 | 107 | 4.49
3 | C=CCN1C(=O)[C@]2(O)CCCN2C1=S | 93.41 | 106 | –
4 | O=C1N(CCc2ccccc2)C(=S)N2CCC[C@@]12O | 75.08 | 112 | –
5 | C=CCN1C(=O)N2CCC[C@@]2(O)C1=O | 110.66 | 97.3 | –
6 | O=C1[C@@H]2CCCN2C(=O)N1CCc1ccccc1 | 111.26 | 111 | –
7 | C=CCN1C(=O)[C@@]2(O)CCCN2C1=S | 153.59 | 114 | –
8 | CSC1=NC[C@]2(S1)C(=O)Nc1ccccc12 | 96.3 | 88.2 | –
9 | O=C1N(CCc2ccccc2)C(=O)[C@]2(O)CCCN12 | 98.7 | 91.2 | –
10 | O=C1N(CCc2ccccc2)C(=O)[C@@]2(O)CCCN12 | 115.13 | 106 | –
11 | O=C1N(CCc2ccccc2)C(=S)N2CCC[C@]12O | 100.68 | 108 | –
12 | C=CCN1C(=O)N2CCC[C@]2(O)C1=O | 141.99 | 100 | –
13 | CCCCC/C=C/C(=O)CCc1ccc(O)c(OC)c1 [SHOGAOL] | 140.69 | 111 | –
14 | CNC(=N)NCCC[C@H](N)C(=O)O [TILARGININE] | – | – | 4.66
